# Target: T1, PI3Kα H1047R (Homo sapiens, UniProt P42336, H1047R)
# T1 construct: The protein contained a full-length p110-a subunit harboring the H1047R mutation with an N-terminal AviTag
# Experiment: Surface Plasmon Resonance (SPR) binding, wortmannin-blocked protein
# Conditions: Biacore 8K, protein pre-incubated with 1 μM wortmannin, 25° C.
# Description: SPR experiments were performed on a Biacore 8K instrument. A biotinylated recombinant PI3Kα H1047R protein was used in this study. The protein contained a full-length p110-a subunit harboring the H1047R mutation with an N-terminal AviTag, complexed with a truncated p85-a subunit (amino acid residues 322-694). The protein was first incubated with 1 μM wortmannin for 30 min at RT to covalently block the ATP binding site, then immobilized onto a streptavidin sensor chip by flowing the protein through the sensor chip at typically 20 μg/mL concentration and 2 μL/min flow rate for 1200 seconds. Compound binding affinities were measured in the multi-cycle kinetics mode, at 90 μL/min flow rate with 90 seconds association time and 240 seconds dissociation time. The running buffer contained 50 mM Tris, pH 7.5, 150 mM NaCl, 0.01% Brij35, 1 mM DTT, 1 mM MgCl2, 0.05% Tween-20 and 2% DMSO. Temperature was maintained at 25° C. during experiments.
# T1 sequence (P42336 whole entry H1047R): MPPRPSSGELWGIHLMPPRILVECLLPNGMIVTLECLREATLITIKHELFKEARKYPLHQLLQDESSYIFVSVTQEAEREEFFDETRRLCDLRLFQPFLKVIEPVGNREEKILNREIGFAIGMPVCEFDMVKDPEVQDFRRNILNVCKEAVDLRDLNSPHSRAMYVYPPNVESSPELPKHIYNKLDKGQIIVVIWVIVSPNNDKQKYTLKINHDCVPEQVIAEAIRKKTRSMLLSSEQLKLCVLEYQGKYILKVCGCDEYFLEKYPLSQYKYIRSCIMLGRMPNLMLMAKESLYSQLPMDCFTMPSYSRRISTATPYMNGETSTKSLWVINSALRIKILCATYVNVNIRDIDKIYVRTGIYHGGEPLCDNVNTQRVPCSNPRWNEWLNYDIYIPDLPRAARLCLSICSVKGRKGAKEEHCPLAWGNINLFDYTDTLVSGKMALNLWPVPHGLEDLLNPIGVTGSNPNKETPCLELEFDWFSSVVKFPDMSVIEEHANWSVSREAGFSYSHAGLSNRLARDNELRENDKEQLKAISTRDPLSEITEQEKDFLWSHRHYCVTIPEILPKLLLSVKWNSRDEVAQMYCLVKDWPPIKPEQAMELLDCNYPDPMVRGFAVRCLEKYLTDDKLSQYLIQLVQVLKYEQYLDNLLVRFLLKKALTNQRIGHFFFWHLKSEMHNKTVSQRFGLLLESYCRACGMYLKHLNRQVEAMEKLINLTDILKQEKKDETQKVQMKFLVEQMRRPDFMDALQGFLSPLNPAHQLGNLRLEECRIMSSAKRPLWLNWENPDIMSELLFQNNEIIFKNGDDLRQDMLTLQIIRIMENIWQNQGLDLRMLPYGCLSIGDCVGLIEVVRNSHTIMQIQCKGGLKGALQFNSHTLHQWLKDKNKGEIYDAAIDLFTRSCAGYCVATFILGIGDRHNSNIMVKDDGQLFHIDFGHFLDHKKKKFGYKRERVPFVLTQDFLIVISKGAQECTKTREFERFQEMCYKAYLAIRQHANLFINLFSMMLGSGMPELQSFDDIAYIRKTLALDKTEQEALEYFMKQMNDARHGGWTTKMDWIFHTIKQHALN
# T1 sequence (P27986 322-694 partner limits assumed): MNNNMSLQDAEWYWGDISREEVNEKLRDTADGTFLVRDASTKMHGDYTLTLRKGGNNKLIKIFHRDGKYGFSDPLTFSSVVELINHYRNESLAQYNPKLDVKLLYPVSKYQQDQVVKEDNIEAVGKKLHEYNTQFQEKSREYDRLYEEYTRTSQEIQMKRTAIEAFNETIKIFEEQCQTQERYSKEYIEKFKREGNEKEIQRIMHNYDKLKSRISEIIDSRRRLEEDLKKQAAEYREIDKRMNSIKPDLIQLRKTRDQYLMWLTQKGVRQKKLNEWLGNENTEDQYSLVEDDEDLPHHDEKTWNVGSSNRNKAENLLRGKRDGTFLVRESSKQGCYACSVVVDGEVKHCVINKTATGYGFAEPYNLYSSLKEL
row,Structure (SMILES),Kd [nM]
1,"Cc1c([C@@H](NC(=O)N[C@H]2CC[C@H](C(N)=O)CC2)C(C)C)oc2ccc(F)cc12 (relative stereo) [Compound 42, (1R,4r)-4-(3-((R*)-1-(5-fluoro-3-methylbenzofuran-2-yl)-2-methylpropyl)ureido)cyclohexane-1-carboxamide]",≥ 500

# Test system: pAKT (S473) in T47D cells (PI3Kα H1047R mutation)
# Experiment: HTRF pAKT (S473) in T47D cells
# Type: cell-based
# Conditions: Homo sapiens, T47D, 1 h
row,Structure (SMILES),IC50 [nM]
1,Cc1c([C@H](NC(=O)Nc2cnc(NCC(C)(C)O)nc2)C(F)(F)F)oc2c(F)cc(F)cc12 [Compound 184],> 5000
2,Cc1c([C@@H](NC(=O)Nc2cccc(N3CCC3=O)c2)C(C)C)oc2ccc(F)cc12 [Compound 104],< 1000
3,Cc1c([C@@H](NC(=O)Nc2cnc(NCC(C)(C)O)nc2)C(F)(F)F)oc2c(F)cc(F)cc12 [Compound 183],< 1000
4,Cc1c([C@@H](NC(=O)Nc2cnc(N3C[C@H](O)[C@H]3C)nc2)C(F)(F)F)oc2c(F)cc(F)cc12 [Compound 174],< 1000
5,Cc1c([C@H](NC(=O)Nc2cnc(N3C[C@H](O)[C@H]3C)nc2)C(F)(F)F)oc2c(F)cc(F)cc12 [Compound 173],> 5000

# Same assay, conditions: timepoint 1 hour
row,Structure (SMILES),IC50 [nM]
1,Cc1c([C@@H](NC(=O)Nc2cnc(N3CC(C(N)=O)C3)nc2)C(F)(F)F)oc2c(F)cc(F)cc12 [Compound 211],< 1000
2,Cc1c([C@@H](NC(=O)Nc2cnc(NC[C@@H](C)O)nc2)C(C)C)oc2ccc(F)cc12 [Compound 143],< 1000
3,Cc1c([C@H](NC(=O)Nc2cnc(N3CC(C(N)=O)C3)nc2)C(F)(F)F)oc2c(F)cc(F)cc12 [Compound 212],> 5000
4,Cc1c([C@@H](NC(=O)Nc2cnc(N3CC[C@H](O)C3)nc2)C(F)(F)F)oc2c(F)cc(F)cc12 [Compound 209],< 1000
5,Cc1c(C(NC(=O)Nc2ccc(N)nc2)C(F)(F)F)oc2c(F)cc(F)cc12 (centres unmarked) [Compound 181],> 5000
6,Cc1c([C@H](NC(=O)Nc2cnc(N3CC[C@@H](O)C3)nc2)C(F)(F)F)oc2c(F)cc(F)cc12 [Compound 207],> 5000
7,Cc1c([C@H](NC(=O)Nc2cnc(N3CC(C(C)(C)O)C3)nc2)C(F)(F)F)oc2c(F)cc(F)cc12 [Compound 206],> 5000
8,Cc1c([C@@H](NC(=O)Nc2cnc(N3CC[C@@H](O)C3)nc2)C(F)(F)F)oc2c(F)cc(F)cc12 [Compound 208],< 1000
9,Cc1c(C(NC(=O)Nc2ccc(N)nc2)C(F)(F)F)oc2c(F)cc(F)cc12 (centres unmarked) [Compound 182],< 1000
10,Cc1c([C@H](NC(=O)Nc2cnc(N3CC[C@H](O)C3)nc2)C(F)(F)F)oc2c(F)cc(F)cc12 [Compound 210],> 5000
11,Cc1c([C@@H](NC(=O)Nc2cnc(N3CC(C(C)(C)O)C3)nc2)C(F)(F)F)oc2c(F)cc(F)cc12 [Compound 205],< 1000

# From patent US20240300939A1 (Scorpion Therapeutics, Inc., priority 2021, published 2024)
